Values of other authors, collected in patent US9963464B2, “Macrocyclic compounds” (Bayer Pharma Aktiengesellschaft, priority 2014, dated 2018).

Tested on: bronchospasms
Conditions: in vivo; cited from earlier work

C[N+]1(C)[C@@H]2C[C@@H](OC(=O)C(O)(c3cccs3)c3cccs3)C[C@H]1[C@@H]1O[C@@H]12 [tiotropium]
protection against bronchospasms (duration): more than 6 hours
